From ChEMBL document CHEMBL6127141, “1-Deoxynojirimycin Derivative Containing Tegafur Induced HCT-116 Cell Apoptosis through Mitochondrial Dysfunction and Oxidative Stress Pathway” (ACS Med Chem Lett, 2024) come the findings set out here.

The test system of data set [1] is HCT-116. The experiment in a line: Cytotoxicity against human HCT-116 cells assessed as inhibition of cell proliferation incubated for 48 hrs by MTT assay. The format is functional, cell-based. The note with it: HCT-116, 48 h.
In data set [2] the test system is BGC-823. Description: Cytotoxicity against human BGC-823 cells assessed as inhibition of cell proliferation incubated for 48 hrs by MTT assay. The format is functional, cell-based. Particulars: BGC-823, 48 h. (Formazan colour is commonly taken as a measure of viable cells.)
Data set [3] deals with HCT-116. The experiment in a line: Induction of cell cycle arrest in human HCT-116 cells assessed as accumulation of cells at S phase at 10 uM incubated for 24 hrs by flow cytometric analysis (reference value: 4.7 %). The format is functional. On the technique in general: Flow cytometry measures light scatter and fluorescence of single cells or particles in a stream.
Data set [4] concerns HCT-116. Description: Anti-metastatic activity in human HCT-116 cells assessed as inhibition of cell migration by measuring wound healing rate at 10 uM incubated for 24 hrs by inverted fluorescence microscopic analysis relative to control. Format: functional. Also noted: scale not given: the % may be the effect or the level left.
In data set [5] the test system is HCT-116. Description: Induction of apoptosis in human HCT-116 cells assessed as apoptotic cells at 10 uM incubated for 24 hrs in presence of 1-Deoxynojirimycin by Annexin V-FITC/PI staining based flow cytometric analysis relative to control. Format: functional.
For data set [6], the system named is HCT-116. The experiment in a line: Anti-metastatic activity in human HCT-116 cells assessed as inhibition of cell migration by measuring wound healing rate at 10 uM incubated for 24 hrs in presence of 1-Deoxynojirimycin by inverted fluorescence microscopic analysis relative to control. The format is functional. Also noted: scale not given: the % may be the effect or the level left.

Data set [7] has as its system A549. The experiment in a line: Cytotoxicity against human A549 cells assessed as inhibition of cell proliferation incubated for 48 hrs by MTT assay. Format: functional, cell-based. The note with it: A549, 48 h.
Data set [8] relates to HCT-116. The experiment in a line: Induction of cell cycle arrest in human HCT-116 cells assessed as accumulation of cells at S phase at 10 uM incubated for 24 hrs in presence of 1-Deoxynojirimycin by flow cytometric analysis (reference value: 4.7 %). The format is functional.
Data set [9] has as its system HeLa. Description: Cytotoxicity against human HeLa cells assessed as inhibition of cell proliferation incubated for 48 hrs by MTT assay. The format is functional, cell-based.
For data set [10], the system named is L02. The experiment in a line: Cytotoxicity against human L02 cells assessed as inhibition of cell proliferation incubated for 48 hrs by MTT assay. Format: functional, cell-based. The note with it: L02, 48 h.
A short description of data set [11]: Selectivity index, ratio of IC50 for cytotoxicity against human L02 cells to IC50 for cytotoxicity against human HCT-116 cells. Format: toxicity, cell-based. The note with it: L02 cells and HCT-116 cells, read-out: Ratio IC50.
The test system of data set [12] is HepG2. The experiment in a line: Cytotoxicity against human HepG2 cells assessed as inhibition of cell proliferation incubated for 48 hrs by MTT assay. The format is functional, cell-based. The note with it: HepG2, 48 h.
Data set [13] deals with HCC1937. Description: Cytotoxicity against human HCC1937 cells assessed as inhibition of cell proliferation incubated for 48 hrs by MTT assay. Format: functional, cell-based. Particulars: HCC1937, 48 h.
The test system of data set [14] is HCT-116. The experiment in a line: Induction of apoptosis in human HCT-116 cells assessed as apoptotic cells at 10 uM incubated for 24 hrs by Annexin V-FITC/PI staining based flow cytometric analysis relative to control. The format is functional.
Data set [15] concerns the target Alpha glucosidase (Homo sapiens, UniProt O43451+P10253+P14410+Q2M2H8). Description: Inhibition of alpha-glucosidase (unknown origin) using para-nitrophenyl-alpha-d-glucopyranoside as substrate preincubated for 5 mins followed by substrate addition and measured after 30 mins by microplate reader. Format: protein assay.
Data set [16] is described as follows: Lipophilicity, logP of compound in n-octanol saturated PBS incubated for 24 hrs by shake-flask method based ultraviolet spectrophotometry. The format is physicochemical.
For data set [17], the system named is HCT-116. The experiment in a line: Induction of apoptosis in human HCT-116 cells assessed as appearance of bright blue appearance at 10 uM incubated for 24 hrs by Hoechst 33342 staining based fluorescence microscopic analysis. The format is functional, cell-based.
Data set [18] has as its system HCT-116. Description: Cytotoxicity against human HCT-116 cells assessed as inhibition of cell proliferation at 5 to 10 uM preincubated with NAC for 3 hrs followed by compound addition and measured after 48 hrs by MTT assay. Format: functional, cell-based. The note with it: dose 5-10 µM.
The subject of data set [19] is HCT-116. The experiment in a line: Induction of ROS accumulation in human HCT-116 cells assessed as increase in green fluorescence intensity at 5 to 10 uM preincubated with NAC for 3 hrs followed by compound addition and measured after 24 hrs by DCFH-DA staining based fluorescence microscopic analysis. The format is functional, cell-based. The note with it: dose 5-10 µM.

Data set [20] relates to HCT-116. Description: Induction of apoptosis in human HCT-116 cells assessed as upregulation of Bax protein level at 10 uM incubated for 24 hrs by Western blot analysis. The format is functional, cell-based.
The test system of data set [21] is HCT-116. The experiment in a line: Induction of oxidative stress in human HCT-116 cells assessed as increase in NO level at 5 to 10 uM incubated for 24 hrs. The note with it: dose 5-10 µM. The format is functional, cell-based.
Data set [22] relates to HCT-116. Description: Induction of oxidative stress in human HCT-116 cells assessed as decrease in SOD concentration at 5 to 10 uM incubated for 24 hrs. The format is functional, cell-based. Particulars: dose 5-10 µM.
Data set [23] concerns Mitochondrial membrane. The experiment in a line: Induction of mitochondrial membrane potential loss in human HCT-116 cells assessed as decrease in red fluorescence at 10 uM incubated for 24 hrs by JC-1 staining based fluorescence microscopic analysis. The format is cell membranes.
Data set [24] deals with HCT-116. The experiment in a line: Induction of DNA damage in human HCT-116 cells assessed as increase in TS protein expression at 10 uM incubated for 24 hrs by Western blot analysis. Format: functional, cell-based. Background: Immunoblotting shows a protein as a band on a membrane.
The subject of data set [25] is HCT-116. The experiment in a line: Inhibition of colony formation in human HCT-116 cells at 5 to 10 uM incubated for 48 hrs by crystal purple staining based analysis. The note with it: dose 5-10 µM. The format is functional, cell-based.
Data set [26] in a line: Potency index, ratio of 1-Deoxynojirimycin IC50 to test compound IC50 for cytotoxicity against human HCT-116 cells assessed as inhibition of cell proliferation incubated for 48 hrs by MTT assay. Format: functional.
Data set [27] deals with HCT-116. The experiment in a line: Induction of apoptosis in human HCT-116 cells assessed as cell contraction at 10 uM incubated for 24 hrs by Hoechst 33342 staining based fluorescence microscopic analysis. The format is functional.
The subject of data set [28] is HCT-116. Description: Induction of ROS accumulation in human HCT-116 cells assessed as increase in green fluorescence intensity at 5 to 10 uM incubated for 24 hrs by DCFH-DA staining based fluorescence microscopic analysis. Format: functional, cell-based. The note with it: dose 5-10 µM.
For data set [29], the system named is HCT-116. The experiment in a line: Induction of oxidative stress in human HCT-116 cells assessed as increase in MDA level at 5 to 10 uM incubated for 24 hrs by Lipid Peroxidation MDA assay. Format: functional, cell-based. The note with it: dose 5-10 µM.
The subject of data set [30] is HCT-116. Description: Induction of apoptosis in human HCT-116 cells assessed as downregulation of Bcl2 protein level at 10 uM incubated for 24 hrs by Western blot analysis. The format is functional, cell-based.
Data set [31] relates to HCT-116. Description: Induction of oxidative stress in human HCT-116 cells assessed as decrease in Nrf2 level at 10 uM incubated for 24 hrs by Western blot analysis. Format: functional, cell-based.
In data set [32] the test system is HCT-116. Description: Induction of oxidative stress in human HCT-116 cells assessed as decrease in GSH concentration at 5 to 10 uM incubated for 24 hrs. The note with it: dose 5-10 µM. The format is functional, cell-based.
Data set [33] has as its system HCT-116. The experiment in a line: Anti-metastatic activity in human HCT-116 cells assessed as inhibition of cell migration by measuring wound healing rate at 10 uM incubated for 24 hrs in presence of tegafur by inverted fluorescence microscopic analysis relative to control. The format is functional. Also noted: scale not given: the % may be the effect or the level left.

Data set [34] relates to HCT-116. The experiment in a line: Induction of cell cycle arrest in human HCT-116 cells assessed as accumulation of cells at S phase at 10 uM incubated for 24 hrs in presence of tegafur by flow cytometric analysis (reference value: 4.7 %). Format: functional.
The test system of data set [35] is HCT-116. Description: Induction of apoptosis in human HCT-116 cells assessed as apoptotic cells at 10 uM incubated for 24 hrs in presence of tegafur by Annexin V-FITC/PI staining based flow cytometric analysis relative to control. The format is functional.

Structures are written as SMILES. Calls of active or inactive are those of the source. The rule behind the calls is not given here.

With `O=c1[nH]c(=O)n(C2CCCO2)cc1F` (configuration not stated) [TEGAFUR], the IC50 – broadly, the concentration that inhibits the measured activity by half – was 88.6 µM in data set [1]; 99.4 µM in data set [2]; above 100 µM in data set [7]; 96.1 µM in data set [9]; 23.5 µM in data set [10]; above 100 µM in data set [12]. Further, the IC50 in data set [13] is above 100 µM. The Activity in data set [3] was 43.81%; in data set [4], 44.37%; in data set [5] it was 15.17%; in data set [6], 32%; in [8], 34.84%; in data set [14], 8.99%. In addition, the selectivity ratio in data set [11] turned out to be 0.27.
For the molecule `O=c1c(F)cn(C2CCCO2)c(=O)n1CCCCCN1C[C@H](O)[C@@H](O)[C@H](O)[C@H]1CO` (some centres not stated), the IC50 was 15.6 µM in [1]; 38.6 µM in data set [2]; 57.6 µM in data set [7]; 29.3 µM in [9]; 56.3 µM in data set [10]; 40.96 µM in [15]. Besides, the IC50 is 40.7 µM in data set [12] and 43.2 µM in data set [13]. Further, in data set [11], the selectivity ratio stood at 3.6. For the same molecule, in [16], the logP (in general, the decadic logarithm of the partition coefficient of the neutral form, usually between octanol and water) at 24 h was -2.49.
In the case of `O=c1c(F)cn(C2CCCO2)c(=O)n1CCCCCCCCN1C[C@H](O)[C@@H](O)[C@H](O)[C@H]1CO` (some centres not stated), the IC50 in [1] was found to be 7.32 µM; in [2], 12.5 µM; in data set [7], 19.4 µM; in data set [9], 26.8 µM; in data set [10] it was 29.3 µM; in [15], 15.09 µM. Further, the figures for the IC50 in data set [12] and in data set [13] were 14.8 µM and 19.7 µM, respectively. The selectivity ratio in data set [11] is 4. In [16], this molecule yielded a logP at 24 h of -0.65.
Take `O=c1c(F)cn(C2CCCO2)c(=O)n1CCCCCCCCCCCN1C[C@H](O)[C@@H](O)[C@H](O)[C@H]1CO` (some centres not stated): the result in data set [17], in data set [20], in [21], in data set [22], in data set [23] and in data set [24] was Active. In addition, the outcome in [27], in [28], in [29], in data set [30], in data set [31] and in data set [32] was Active. Also, the IC50 in data set [1] is 1.37 µM; in [2] it was 4.35 µM; in data set [7], 6.34 µM; in data set [9], 13 µM; in data set [10], 19.7 µM; in data set [15] it was 2.76 µM. Further, the IC50 in data set [12] came to 7.72 µM; in data set [13], 9.14 µM. Moreover, the result in data set [18] and in data set [19] was inactive. The figures for the Activity in [3], in [4] and in [14] were 49.31%, 9.42% and 69.8%, respectively. Further, in data set [25], the inhibition result is “Active”. In addition, in [26], the “Ratio IC50” value worked out at 73. Also, in [11], the selectivity ratio was 14.4. In addition, the logP at 24 h in [16] stood at 1.02.
`OC[C@H]1NC[C@H](O)[C@@H](O)[C@@H]1O` [DUVOGLUSTAT]: the Activity was 32% in [33]; 11.29% in [3]; 51.91% in data set [4]; 34.84% in data set [34]; 6.16% in data set [14]; 15.17% in [35]. In addition, the IC50 in [1], in data set [2], in data set [7], in [9], in [10] and in data set [12] was above 100 µM throughout. In addition, the IC50 in data set [13] is above 100 µM. In data set [16], this molecule showed a logP at 24 h of -0.68.
